The term Cmax denotes the peak of the concentration-time curve. For orientation: Tmax means the time at which the peak concentration occurs.

Read-outs that look alike come from different tables or passages of the source.

The results in this text go back to PMC6018403 (Frontiers in Pharmacology, 2018).

A short description of the series: Multi-component pharmacokinetic study of GQD, GQD-GC and single herb extracts in rats (plasma, LC/MS/MS). The series is classed as in vivo, Sprague-Dawley rats. The note with it: for Cmax / half-life / AUC(0-t) / Tmax: male, Sprague-Dawley, rat. How it is done:
Male Sprague-Dawley rats (220–250 g) were used for PK study, and the details were described in Supplemental Data. All procedures were in accordance with the National Institutes of Health Guide for the Care and Use of Laboratory Animals.
For PK study of GQD and its component herbs, rats were randomly divided into six groups (n = 10 for each group) before oral administration.
All blood samples were immediately centrifuged at 6,000 rpm (4°C) for 20 min to obtain plasma. The plasma samples were stored at −80°C.
A Finnigan TSQ Quantum triple quadrupole mass spectrometer was connected to a Surveyor HPLC via ESI interface (ThermoFisher). High purity nitrogen was used as the sheath and auxiliary gas; Ultra-high purity argon was used as the collision gas (1.5 mTorr). Q1 and Q3 quadrupoles were set at unit resolution. […] The column temperature was 40°C. The mobile phase consisted of acetonitrile containing 2% (v/v) methanol (A) and water containing 0.1% (v/v) formic acid (B). […] An aliquot of 5 μL was injected for analysis. UV spectra were obtained by scanning from 200 to 400 nm. The mass spectrometer was operated in the (+)-ESI mode. The optimized parameters were as follows: sheath gas (N2), 50 arb; auxiliary gas (N2), 5 arb; spray voltage, 4.0 kV; capillary temperature, 330°C; collision energy, see Table S1. Analytes were detected in the selected reaction monitoring (SRM) mode. Data were processed by Xcalibur 2.0.7 software (ThermoFisher).
LC/MS/MS calibration and quantitation data were processed with Xcalibur 2.0.7 software (ThermoFisher). The maximal plasma concentrations (Cmax) and their time of occurrence (Tmax) were obtained directly from the measured data. Other pharmacokinetic parameters were calculated by non-compartment or compartment models using WinNonlin® software (v6.1, Pharsight). Unless otherwise stated, results were expressed as the mean ± SD. Statistical significance in differences of the means was determined by Student's t–test, with a significance level of P < 0.05.
Herbal materials and extracts.
The four component herbs, Puerariae Lobatae Radix (Ge-Gen, GG), Scutellariae Radix (Huang-Qin, HQ), Coptidis Rhizoma (Huang-Lian, HL), and Glycyrrhizae Radix et Rhizoma Praeparata cum Melle (Gan-Cao, GC) were purchased from Tianheng Pharmacy. GQD was prepared by decocting the four component herbs […]
pre-extraction of Ge-Gen using 200 mL of water for 0.5 h. The decoctions were combined, filtered, and concentrated in vacuum at 50 °C. GQD-GC was prepared using the same procedure, except that Gan-Cao was removed from the formula. Final concentration of the GQD-GC extract was equivalent to 1.0 g of the crude drugs per mL. For single herb extracts, the herbs were decocted in 8-fold volume of water for […]
Final concentrations of the extracts were 1.0 g/mL for Ge-Gen, and 0.5 g/mL for Huang-Qin, Huang-Lian and […]
For pharmacokinetic study, Male Sprague-Dawley rats (220-250 g) were obtained from the Laboratory Animal Center of Peking University Health Science Center. The […]
The rats had free access to tap water and soy-free custom diet (Ke’ao Xieli Co.). All procedures were in accordance with the National Institutes of Health Guide for the Care and Use of Laboratory Animals […]
Experimental details for the PK study
1. Preparation of internal standard solution, calibration standard solutions, and quality control solutions […]
internal standard solution. Reference standard compounds were dissolved in the internal standard solution to prepare individual stock solutions (1.0 mg/mL). These […]
each compound. The standard solution was then serially diluted to obtain calibration […]
Quality control stock solutions were prepared at three concentration levels as high QC (HQC), middle QC (MQC), and low QC (LQC), based on linear ranges of the analytes.
2.1. Sample preparation for pharmacokinetic study
The calibration standard and quality control solutions for pharmacokinetic study were […]

[1] abbreviates: in vivo, GG (Ge-Gen) group: rats, oral extract 9.45 g/kg, plasma, read-out: Tmax.
[2] abbreviates: in vivo, GQD group: rats, oral GQD extract 18.9 g/kg, plasma, read-out: Tmax.
[3] abbreviates: in vivo, GQD-GC group (GQD without Gan-Cao): rats, oral 16.5 g/kg, plasma, read-out: Tmax.
Setting [4] is: in vivo, po, 9.45 g/kg, GG (Ge-Gen) group: rats, oral extract 9.45 g/kg, plasma, read-out: AUClast.
The mark [5] stands for this setting: in vivo, po, 16.5 g/kg, GQD-GC group (GQD without Gan-Cao): rats, oral 16.5 g/kg, plasma, read-out: AUClast.
Setting [6] is: in vivo, po, 18.9 g/kg, GQD group: rats, oral GQD extract 18.9 g/kg, plasma, read-out: AUClast.
The mark [7] stands for this setting: in vivo, GG (Ge-Gen) group: rats, oral extract 9.45 g/kg, plasma, read-out: Cmax.
[8] abbreviates: in vivo, GG (Ge-Gen) group: rats, oral extract 9.45 g/kg, plasma, read-out: T1/2 (converted).
The mark [9] stands for this setting: in vivo, GQD group: rats, oral GQD extract 18.9 g/kg, plasma, read-out: Cmax.
The mark [10] stands for this setting: in vivo, GQD group: rats, oral GQD extract 18.9 g/kg, plasma, read-out: T1/2 (converted).
[11] abbreviates: in vivo, GQD-GC group (GQD without Gan-Cao): rats, oral 16.5 g/kg, plasma, read-out: Cmax.
Where [12] appears, read: in vivo, GQD-GC group (GQD without Gan-Cao): rats, oral 16.5 g/kg, plasma, read-out: T1/2 (converted).
Where [13] appears, read: plasma, po, 9.45 g/kg, GG (Ge-Gen) group: rats, oral extract 9.45 g/kg, plasma, read-out: AUClast.
The mark [14] stands for this setting: plasma, po, 16.5 g/kg, GQD-GC group (GQD without Gan-Cao): rats, oral 16.5 g/kg, plasma, read-out: AUClast.
Where [15] appears, read: plasma, po, 18.9 g/kg, GQD group: rats, oral GQD extract 18.9 g/kg, plasma, read-out: AUClast.
Where [16] appears, read: GG (Ge-Gen) group: rats, oral extract 9.45 g/kg, plasma, read-out: Cmax.
The mark [17] stands for this setting: GG (Ge-Gen) group: rats, oral extract 9.45 g/kg, plasma, read-out: T1/2 (converted).
The mark [18] stands for this setting: GG (Ge-Gen) group: rats, oral extract 9.45 g/kg, plasma, read-out: Tmax.
Where [19] appears, read: GQD group: rats, oral GQD extract 18.9 g/kg, plasma, read-out: Cmax.
The mark [20] stands for this setting: GQD group: rats, oral GQD extract 18.9 g/kg, plasma, read-out: T1/2 (converted).
[21] abbreviates: GQD group: rats, oral GQD extract 18.9 g/kg, plasma, read-out: Tmax.
Where [22] appears, read: GQD-GC group (GQD without Gan-Cao): rats, oral 16.5 g/kg, plasma, read-out: Cmax.
Setting [23] is: GQD-GC group (GQD without Gan-Cao): rats, oral 16.5 g/kg, plasma, read-out: T1/2 (converted).
Setting [24] is: GQD-GC group (GQD without Gan-Cao): rats, oral 16.5 g/kg, plasma, read-out: Tmax.

`O=c1c(-c2ccc(O)cc2)coc2cc(O)ccc12` [Compound 3, daidzein] had a Cmax (in vivo, po, 9.45 g/kg) of 188 ± 10.4 ng/mL; a Cmax (in vivo, po, 16.5 g/kg) of 83.5 ± 3.23 ng/mL; a Cmax (in vivo, po, 18.9 g/kg) of 186 ± 36.2 ng/mL. Also, the half-life runs as follows: (in vivo, po, 9.45 g/kg) 5.12 ± 0.87 h; (in vivo, po, 16.5 g/kg) 4.28 ± 1.47 h; (in vivo, po, 18.9 g/kg) 6.23 ± 1.36 h. The molecule also displayed an AUC(0-t) (in vivo, po, 9.45 g/kg, AUClast) of 2640 ± 1150 ng·h/mL; an AUC(0-t) (in vivo, po, 16.5 g/kg, AUClast) of 674 ± 604 ng·h/mL; an AUC(0-t) (in vivo, po, 18.9 g/kg, AUClast) of 3050 ± 998 ng·h/mL. The Tmax is, setting by setting: under setting [1], 8 ± 0.14 h; under setting [2], 8 ± 12.8 h; under setting [3], 0.25 ± 0.32 h.

As to `O=c1c(-c2ccc(O)cc2)coc2cc(O[C@@H]3O[C@H](CO)[C@@H](O)[C@H](O)[C@H]3O)ccc12` [Compound 1, Daidzin], the AUC(0-t) is, setting by setting: under setting [4], 290 ± 42.2 ng·h/mL; (in vivo, po, 9.45 g/kg, Ge-Gen group: rats, oral 9.45 g/kg, plasma, read-out: AUClast) 290 ± 42.2 ng·h/mL; under setting [5], 282 ± 61.6 ng·h/mL; under setting [6], 346 ± 30.3 ng·h/mL; (in vivo, po, 18.9 g/kg, GQD group: rats, oral GQD 18.9 g/kg (1.5-fold of clinical dosage), plasma, read-out: AUClast) more than 300 ng·h/mL. Besides, the Cmax under setting [7] was 58 ± 0.77 ng/mL, the Cmax under setting [9] came out at 27.4 ± 3.34 ng/mL and the Cmax under setting [11] was 52.4 ± 2.21 ng/mL. For the same molecule, the half-life reads like this: under setting [8], 0.74 ± 0.33 h; under setting [10], 3.96 ± 1.02 h; under setting [12], 1.63 ± 0.14 h. The Tmax reads like this: under setting [1], 0.38 ± 0.04 h; under setting [2], 0.88 ± 0.11 h; under setting [3], 0.58 ± 0.24 h. In addition, under “rats, oral”, the “bioavailability in the GQD group compared with the Ge-Gen group” value is “higher”.

For the molecule `COc1cc(-c2coc3c(C4OC(COC5OCC(O)(CO)C5O)C(O)C(O)C4O)c(O)ccc3c2=O)ccc1O` (centres unmarked) [Compound 37, 3'-methoxymirificin], the AUC(0-t) under setting [4] amounted to 47.4 ± 28.7 ng·h/mL, the AUC(0-t) under setting [5] was determined as 42.5 ± 11.3 ng·h/mL and the AUC(0-t) under setting [6] was found to be 86.3 ± 23.9 ng·h/mL. Moreover, the Cmax runs as follows: under setting [7], 11.6 ± 0.56 ng/mL; under setting [9], 9.94 ± 3.68 ng/mL; under setting [11], 7.22 ± 3.27 ng/mL. Besides, the half-life runs as follows: under setting [8], 1.37 ± 0.19 h; under setting [10], 1.04 ± 0.04 h; under setting [12], 1.62 ± 0.39 h. The Tmax under setting [1] stood at 0.36 ± 0.74 h, the Tmax under setting [2] turned out to be 0.36 ± 0.03 h and the Tmax under setting [3] worked out at 0.35 ± 0.42 h.

In the case of `COc1c(O)cc2oc(-c3ccccc3)cc(=O)c2c1O` [Compound 9, oroxylin A], for the setting “in vivo, po, 3.54 g/kg”, the highest level (Cmax) was 43.6 ± 3.04 ng/mL, the Tmax is 0.08 ± 0.53 h and the half-life is 5.29 ± 2.33 h. The molecule further registered an AUC(0-t) (in vivo, po, 3.54 g/kg, AUClast) of 351 ± 174 ng·h/mL.

As for `COc1ccc(C2=CC(=O)OC2Cc2ccc(O)cc2)c(OC2OC(CO)C(O)C(O)C2O)c1` [Compound 41, (4S)-puerol B 2″-O-glucopyranoside], the AUC(0-t) is 67.3 ± 28.7 ng·h/mL under setting [13], 18.9 ± 4.09 ng·h/mL under setting [14] and 37.5 ± 21.1 ng·h/mL under setting [15]. Also, the highest concentration (Cmax) reads like this: under setting [16], 14.9 ± 9.76 ng/mL; under setting [19], 10.9 ± 9.4 ng/mL; under setting [22], 11.1 ± 4.41 ng/mL. For the same molecule, the half-life by setting is: under setting [17], 9.31 ± 2.19 h; under setting [20], 7.98 ± 2.88 h; under setting [23], 6.45 ± 5.16 h. Besides, the Tmax worked out at 0.52 ± 1.11 h under setting [18], 0.52 ± 0.26 h under setting [21] and 0.53 ± 1.2 h under setting [24].

On to `O=c1c(-c2ccc(O)cc2)coc2cc(O[C@@H]3O[C@H](CO)[C@@H](O)[C@H](O)[C@H]3O)cc(O)c12` [Compound 4, genistin], for which the AUC(0-t) was found to be 51.7 ± 24.2 ng·h/mL under setting [13], 88.2 ± 24.3 ng·h/mL under setting [14] and 72.6 ± 15.2 ng·h/mL under setting [15]. For the same molecule, the Cmax is 3.09 ± 1.99 ng/mL under setting [16], 4.97 ± 1.11 ng/mL under setting [19] and 8.08 ± 3.19 ng/mL under setting [22]. The half-life under setting [17] was 6.88 ± 5.23 h, the half-life under setting [20] was 6.93 ± 0.73 h and the half-life under setting [23] is 8.17 ± 2.43 h. The Tmax amounted to 1 ± 2.31 h under setting [18], 1.04 ± 0.78 h under setting [21] and 1.04 ± 0.75 h under setting [24]. Also, the “bioavailability in the GQD group compared with the Ge-Gen group” value (rats, oral) is “higher”.

As to `O=C(/C=C/c1ccc(O[C@@H]2O[C@H](CO)[C@@H](O)[C@H](O)[C@H]2O)cc1)c1ccc(O)cc1O` [Compound 27, isoliquiritin], the AUC(0-t) (in vivo, po, 2.36 g/kg, GC (Gan-Cao) group: rats, oral extract 2.36 g/kg, plasma, read-out: AUClast) was determined as 8.46 ± 2.99 ng·h/mL and the AUC(0-t) under setting [6] was 11.9 ± 2.4 ng·h/mL. In addition, the Cmax by setting is: (in vivo, GC (Gan-Cao) group: rats, oral extract 2.36 g/kg, plasma, read-out: Cmax) 2.17 ± 0.98 ng/mL; under setting [9], 2.59 ± 2.43 ng/mL. Further, the half-life (in vivo, GC (Gan-Cao) group: rats, oral extract 2.36 g/kg, plasma, read-out: T1/2 (converted)) is 0.91 ± 0.08 h and the half-life under setting [10] is 1.62 ± 0.33 h. Further, the Tmax is, setting by setting: (in vivo, GC (Gan-Cao) group: rats, oral extract 2.36 g/kg, plasma, read-out: Tmax) 0.4 ± 1.23 h; under setting [2], 0.49 ± 1.01 h. Under “rats, oral”, the “plasma concentrations, effect of GQD compared with Gan-Cao” value is listed as “improved”.
